Earlier results on 1 compound are cited in patent publication US12012625B2, “Method for producing bioactive composition” (Imam Abdulrahman Bin Faisal University, priority 2020, dated 2024).

Each structure is given as a SMILES string.

With `Cc1cc(=O)c2c(O)c3c(O)cc(=O)c4c3c3c(c(Cl)c(O)c1c23)C(C)(C)C=4O` [chlorxanthomycin], the growth inhibition entry in the series on B. amyloliquefaciens and in the series on B. subtilis was “inhibited the growth” in each case.
